From patent US11279708B2, “Amidino- and amino-rocaglates as novel translation inhibitors and anticancer agents” (priority 2019, dated 2022)

Columns and labels:
eIF4A2:poly r(AG)8 RNA = target: T1, eIF4A2:poly r(AG)8 RNA (Homo sapiens, UniProt Q14240); test: fluorescence polarization (FP) assay, eIF4A2 binding to FAM-labelled RNA; conditions: 10 μM CR-1-31-B
T1 construct: His6 (N); made in house; host or cells: E. coli BL21 (DE3)
Text: Rocaglates similarly enhance RNA binding of eIF4A1 and eIF4A2. In order to rapidly evaluate the ability of rocaglates to stimulate binding of eIF4A to RNA, a fluorescence polarization (FP) assay using a FAM (fluorescein amidite)-labelled RNA probe (FIG. 18A) was used. […] Due to the high degree of shared amino acid identity between the two paralogs, their apparent similarity with respect to RNA binding activity and response to CR-1-31-B (23), and the fact that eIF4A1 is essential but eIF4A2 is not, eIF4A1 was used in the majority of our subsequent experiments.
Fluorescence Polarization (FP) Assays. Unless otherwise specified, eIF4A (500 nM) was incubated with 10 nM FAM-labelled RNA for 30 min in FP buffer (14.4 mM HEPES-NaOH (pH 8), 108 mM NaCl, 1 mM MgCl2, 14.4% glycerol, 0.1% DMSO, 2 mM DTT, 1 mM AMPPNP) at room temperature in black low volume 384 well plates (Corning 3820). FP readings were performed on a Pherastar FS microplate reader (BMG Labtech).
FIGS. 17A-17F. Assessment of eIF4A1 and eIF4A2 RNA binding specificity. 17A. Chemical structure of the most commonly used rocaglates in biological studies 17B. Coomassie blue staining of SDS-PAGE showing eIF4A1 and eIF4A2 preparations used herein. […]

eIF4A1:poly r(AG)10 = target: T2, eIF4A1:poly r(AG)10 (Homo sapiens, UniProt P60842); test: FP competition assay, dissociation of eIF4A from (AG)10 RNA; format: binding; conditions: in the presence of compound
T2 construct: His6 (N); made in house; host or cells: E. coli BL21 (DE3)
Procedure: All of these identified compounds retained similar RNA sequence binding preference for eIF4A1 with a bias for polypurine-containing substrates over polypyrimidines (FIG. 17). […] Even in the presence of ATP, which stimulates release of eIF4A from RNA, the half-life of the complexes were much longer than the rates of translation initiation (median <1 min)
Rocaglates sequester eIF4F onto RNA. RocA (2) induced clamping of eIF4A to 5′ leader regions have been proposed to inhibit translation by blocking scanning of 43S PICs. We therefore sought to test if this mechanism was sufficient to account for the translation inhibition observed with RocA, CR-1-31-B (23), and the newly identified ADRs. We supplemented translation extracts programmed with m^7G-(AG)10-FF/HCV/Ren mRNA with wild-type (wt) or rocaglate-resistant eIF4A1(F163L) recombinant protein. […] Thus, if stabilization of endogenous eIF4A in translation extracts onto mRNA is sufficient to mediate translation inhibition, then the addition of recombinant eIF4A1^F163L should not be able to rescue this inhibition. […]
FIG. 21. […] FP results of competition assays in which preformed eIF4A1:rocaglate:FAM-poly r(AG)10 complexes were incubated in the presence of poly r(AG)10 (SEQ ID NO: 39) and dissociation measured as a function of time. n=3±SD.

T1 sequence (Q14240 whole entry, species assumed): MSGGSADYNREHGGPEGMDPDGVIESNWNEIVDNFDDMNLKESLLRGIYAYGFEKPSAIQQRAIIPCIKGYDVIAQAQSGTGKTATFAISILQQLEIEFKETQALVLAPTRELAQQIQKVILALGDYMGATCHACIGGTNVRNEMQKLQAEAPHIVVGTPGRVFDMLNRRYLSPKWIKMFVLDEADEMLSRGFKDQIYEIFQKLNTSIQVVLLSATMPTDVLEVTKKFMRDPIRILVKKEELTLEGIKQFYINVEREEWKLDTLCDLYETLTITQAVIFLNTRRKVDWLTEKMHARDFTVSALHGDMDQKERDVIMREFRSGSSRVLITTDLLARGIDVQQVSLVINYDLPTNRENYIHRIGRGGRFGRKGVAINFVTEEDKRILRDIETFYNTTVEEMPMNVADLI
T2 sequence (P60842 whole entry, species assumed): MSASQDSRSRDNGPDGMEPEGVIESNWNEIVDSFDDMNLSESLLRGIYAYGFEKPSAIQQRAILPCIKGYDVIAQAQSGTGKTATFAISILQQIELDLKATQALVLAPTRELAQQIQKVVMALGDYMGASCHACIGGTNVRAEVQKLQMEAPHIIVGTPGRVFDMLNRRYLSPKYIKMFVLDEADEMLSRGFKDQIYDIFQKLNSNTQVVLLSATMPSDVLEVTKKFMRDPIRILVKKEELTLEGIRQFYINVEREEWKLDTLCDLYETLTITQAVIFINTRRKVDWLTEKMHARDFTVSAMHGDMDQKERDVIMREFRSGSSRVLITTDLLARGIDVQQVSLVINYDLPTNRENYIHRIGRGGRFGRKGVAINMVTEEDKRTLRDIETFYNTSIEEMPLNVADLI

Row | Compound | stimulation of eIF4A2:RNA binding (in words) (eIF4A2:poly r(AG)8 RNA) | dissociation of eIF4A from (AG)10, t1/2 (eIF4A1:poly r(AG)10)
1 | CONC(=O)[C@H]1[C@@H](O)[C@@]2(O)c3c(OC)cc(OC)cc3O[C@@]2(c2ccc(OC)cc2)[C@@H]1c1ccccc1 [CR-1-31-B] | equally stimulates binding of both eIF4A1 and eIF4A2 | –
2 | COc1ccc([C@@]23Oc4cc(OC)cc(OC)c4[C@]2(O)[C@H](O)[C@H](C(=O)N(C)C)[C@H]3c2ccccc2)cc1 [RocA, rocaglamide A] | – | 27 min
